# What was measured:
# [1] = system: TAA-induced liver fibrotic C57BL/6J mice; experiment: Hydroxyproline assay of liver tissue; type: in vivo; conditions: CX groups (20 and 50 mg/kg oral, 6 weeks); vs TAA group
# Procedure: (§1) For tests of adlay extracts, mice were randomly divided into the following seven groups (n=6, per group): (1) No treatment group (NT, normal diet), (2) Thioacetamide group (TAA, 200 mg/kg, normal diet), (3) 10% adlay seed powder (ASP) group, (4) 1% adlay leaf powder (ALP) group, (5) 1% adlay seed polysaccharide (ASPS) group, (6) 0.025% adlay seed ethanolic extract (ASE) group and (7) 0.1% ASE group. NT group received pure saline, and other groups intraperitoneally injected with TAA dissolved into saline thrice a week.
# For tests of CX, mice were randomly divided into the following four groups (n=8, per group): (1) NT group, (2) TAA group (200 mg/kg), (3) CX group (CX20, 20 mg/kg), and (4) CX group (CX50, 50 mg/kg). NT group received pure saline, and other groups intraperitoneally injected with TAA dissolved into saline thrice a week. Moreover, NT group and TAA group also received 5% propylene glycol, while CX groups received CX dissolved into 5% propylene glycol (prepared in 0.9% saline) by oral gavage once per day. […]
# The procedure of hydroxyproline assay is as follows. The hydroxyproline, as an indirect index of the collagen content in the liver, was determined by a hydroxyproline assay kit and the testing procedures followed the manufacturer's protocol. […] The hydroxyproline content was measured at a wavelength of 558 nm on an ELISA reader (TECAN, Switzerland). […]
# [2] = system: TAA-induced liver fibrotic C57BL/6J mice; experiment: Liver weight, body weight and liver index; type: in vivo; conditions: CX groups (20 and 50 mg/kg oral, 6 weeks); vs TAA group
# Procedure: as §1
# (§2) For tests of CX, mice were randomly divided into the following four groups (n=8, per group): (1) NT group, (2) TAA group (200 mg/kg), (3) CX group (CX20, 20 mg/kg), and (4) CX group (CX50, 50 mg/kg). NT group received pure saline, and other groups intraperitoneally injected with TAA dissolved into saline thrice a week. Moreover, NT group and TAA group also received 5% propylene glycol, while CX groups received CX dissolved into 5% propylene glycol (prepared in 0.9% saline) by oral gavage once per day.
# The procedure of the schematic diagram of animal experiment design in adlay groups is described as follows. To examine the effects of adlay on liver fibrosis, this example established a TAA-induced liver fibrotic C57BL/6J mouse model. FIG. 1 is a schematic diagram of animal experiment design in adlay groups. In this experiment, C57BL/6J mice were intraperitoneally injected with thioacetamide (TAA) to induce liver fibrosis. At six weeks of age, the mice were randomly divided into seven groups fed with different diets (NT, TAA, 10% ASP, 1% ALP, 1% ASPS, 0.025% ASE and 0.1% ASE, n=6). After co-feeding for 6 weeks during which intraperitoneal injection of TAA was administered thrice a week, the mice were finally sacrificed at 12 weeks of age. NT represents no treatment, ASP represents adlay seed powder, ALP represents adlay leaf powder, ASPS represents adlay seed polysaccharide, and ASE represents adlay seed ethanolic extract. […]
# [3] = system: TAA-induced liver fibrotic C57BL/6J mice; experiment: Oxidative stress indicator tests in liver (SOD, CAT, GSH, MDA); type: in vivo; conditions: 6 weeks, vs TAA group
# Procedure: as §2
# To examine the effects of CX on liver fibrosis, this example established a TAA-induced liver fibrotic C57BL/6J mouse model. FIG. 6 is a schematic diagram of animal experiment design in 6-methoxybenzoxazolinone (6-MBOA) (CX) groups. For animal experiments, 6-week-old C57BL/6J mice were randomly divided into four groups including NT, TAA, CX20 (TAA+20 mg/kg CX), CX50 (TAA+50 mg/kg CX). (n=8 per group). Mice were given intraperitoneal injection of TAA thrice a week to induce liver fibrosis; they also received CX or the vehicle by oral gavage once per day. At the end of animal tests, mice were sacrificed at 12 weeks of age. Six-week-old mice were randomly divided into four groups, namely NT, TAA, CX20 and CX50 (FIG. 6). Among these groups, only the NT group was oral gavaged and administered with vehicle, the TAA group was oral gavaged with vehicle and administered with TAA, and the CX groups were oral gavaged with CX and administered with TAA. Oral gavage was performed once a day while intraperitoneal injection was given thrice a week; both oral gavage and intraperitoneal injection were continuously administered for six weeks. After that, the mice were sacrificed, and their liver tissues and serum were collected for subsequent analyses.
# The procedure of oxidative stress indicator tests is as follows. The enzyme activity of catalase (CAT) and superoxide dismutase (SOD), the content of malondialdehyde (MDA), and the concentration of glutathione (GSH) in tissue were tested to examine changes in oxidative stress levels in TAA-induced liver fibrotic mice. […] All of the kits were commercial products, the working protocol followed the manufacturer's instructions. Briefly, the liver tissue was homogenized in ice-cold buffer and centrifuged at 4° C., then collected supernatant for analysis, finally, read the absorbance of samples with ELISA reader (TECAN, Switzerland).
# [4] = system: TGF-β1-activated HSC-T6 cells; experiment: Wound healing assay; type: cell-based, rat
# Procedure: The procedure of wound healing assay is as follows. HSC-T6 cells were seeded on the 6-well plates for 24 h, scraped monolayer cells with a 200 μL pipette tip and washed off non-adherent cells by PBS, changed serum-free medium for 24 h, then treated with TGF-β1 and CX for 0, 24, and 48 h.
smiles,measurement,setting,value
"COc1ccc2[nH]c(=O)oc2c1 [CX, 6-methoxybenzoxazolinone]",liver hydroxyproline content,[1],significantly lower
same,change in body weight caused by TAA,[2],did not significantly improve
same,liver index (ratio of liver weight to body weight),[2],decreased significantly
same,liver weight,[2],reduced
same,liver CAT activity,[3]; CX20: 20 mg/kg oral,increased
same,liver GSH content,[3]; CX20: 20 mg/kg oral,increased
same,liver MDA content,[3]; CX20: 20 mg/kg oral,decreased
same,liver CAT activity,[3]; CX50: 50 mg/kg oral,increased
same,liver GSH content,[3]; CX50: 50 mg/kg oral,increased
same,liver MDA content,[3]; CX50: 50 mg/kg oral,decreased
same,liver SOD activity,[3]; CX50: 50 mg/kg oral,significantly increased
same,TGF-β1-induced wound closure of 24 h,"[4]; HSC-T6, CX at a dose of 100 μM",significantly reduced
same,TGF-β1-induced wound closure of 48 h,"[4]; HSC-T6, CX at a dose of 20-100 μM",reduced

# Source: patent publication US20250017907A1, “METHOD FOR PREVENTING AND/OR TREATING LIVER FIBROSIS BY USING 6-METHOXYBENZOXAZOLINONE AND COIX LACHRYMA-JOBI L. EXTRACT COMPRISING 6-METHOXYBENZOXAZOLINONE” (Taichung District Agricultural Research and Extension …, priority 2023, published 2025)
